Assay results reported in PubChem BioAssay (NCI).
Where “and” joins values, the source holds several entries; their conditions need not be identical. Equal values may be shown once.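 Each compound was tested at five concentrations against cells in 96-well plates for 48 hours. The concentration for 50% growth inhibition is given as GI50. The concentration for full growth arrest is given as TGI.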

Assays:
Test in all cases: DTP human tumour cell line panel, 48 h
UO-31 renal = system: UO-31 renal
OVCAR-4 ovarian = system: OVCAR-4 ovarian
HT29 colon = system: HT29 colon
786-0 renal = system: 786-0 renal
EKVX NSCLC = system: EKVX NSCLC
CAKI-1 renal = system: CAKI-1 renal
HS 578T breast = system: HS 578T breast
HL-60(TB) leukemia = system: HL-60(TB) leukemia
SK-MEL-2 melanoma = system: SK-MEL-2 melanoma
SN12C renal = system: SN12C renal

| Compound | GI50 (UO-31 renal) | TGI (UO-31 renal) | GI50 (OVCAR-4 ovarian) | TGI (OVCAR-4 ovarian) | GI50 (HT29 colon) | TGI (HT29 colon) | TGI (786-0 renal) | GI50 (EKVX NSCLC) | GI50 (CAKI-1 renal) | TGI (HS 578T breast) | GI50 (HL-60(TB) leukemia) | TGI (HL-60(TB) leukemia) | GI50 (SK-MEL-2 melanoma) | TGI (SK-MEL-2 melanoma) | TGI (SN12C renal) | TGI (EKVX NSCLC) | TGI (CAKI-1 renal) | GI50 (786-0 renal) | GI50 (HS 578T breast) | GI50 (SN12C renal) |
| --- | --- | --- | --- | --- | --- | --- | --- | --- | --- | --- | --- | --- | --- | --- | --- | --- | --- | --- | --- | --- |
| CC[C@@]1(O)C(=O)OCc2c1cc1n(c2=O)Cc2cc3cc(O)ccc3nc2-1 | 0.0311 µM and 0.0195 µM | 0.204 µM and 0.135 µM | 0.224 µM | 0.441 µM and 3.17 µM | 0.16 µM and 0.167 µM | 18.4 µM | 0.9 µM | 0.107 µM and 0.903 µM | 0.042 µM | 8.52 µM | 0.0187 µM | 0.135 µM | 0.174 µM | 2.15 µM and 1.2 µM | 1.48 µM and 3.54 µM |  |  |  |  |  |
| COC(=O)NC1=Nc2ccccc2C(=O)NN1 |  | > 100 µM |  | > 100 µM |  | > 100 µM | > 100 µM |  |  | > 100 µM |  | > 100 µM |  | > 100 µM | > 100 µM | > 100 µM | > 100 µM |  |  |  |
| C=CCc1cc(O)ccc1O | 11 µM | 24.4 µM | 14 µM | 27 µM | 80.2 µM | > 100 µM | > 100 µM | 41.1 µM | 23.9 µM | > 100 µM | 2.53 µM | 7.04 µM | 85.5 µM | > 100 µM | 49.4 µM | > 100 µM | > 100 µM | 22.8 µM | 23.2 µM | 11 µM |
| C=C(CC)C(=O)c1ccc(OCC(=O)O)c(Cl)c1Cl |  | 34.3 µM |  | 43.6 µM |  | 36.3 µM | 19.7 µM |  |  | 45.9 µM |  | > 85 µM |  | 33.2 µM | 47.5 µM | 38.3 µM | 28.1 µM |  |  |  |
| Nc1nc(N)c2c(Cl)c(CNc3ccc(Cl)c(Cl)c3)ccc2n1 |  | 10.3 µM |  | 16.9 µM |  | 10.3 µM | 8.39 µM |  |  | 11.9 µM |  | 2.75 µM |  | 16.7 µM | 23.3 µM | 19.2 µM | 16 µM |  |  |  |
| CCc1nc(N)nc(N)c1-c1ccc(N2CCNCC2)c([N+](=O)[O-])c1 |  | > 100 µM |  | > 100 µM |  | > 100 µM | > 74.3 µM |  |  | > 74.2 µM |  | > 85.2 µM |  | > 90.5 µM | > 100 µM | > 100 µM | > 100 µM |  |  |  |
| COc1cc2c3c(n(CCCNCCCCN)c(=O)c2cc1OC)-c1cc2c(cc1C3=O)OCO2 | 7.39 µM | > 58.5 µM | 7.31 µM | 29.9 µM | 4.57 µM | > 100 µM | 20.5 µM | 18.6 µM |  | 16.1 µM | 0.335 µM |  | 4.86 µM | 16.4 µM | 5.89 µM | 42.7 µM | 15 µM | 2.27 µM | 3.76 µM | 0.373 µM |
| Cn1ccc(S(=O)(=O)N2CCC[C@H](Nc3nccc(-c4c(-c5cccc(O)c5)nc5occn45)n3)C2)n1 | 12.9 µM | 57.1 µM | 14.5 µM | > 85.8 µM | 0.732 µM | 34.7 µM | > 100 µM |  | 18 µM | 93.5 µM | 10.8 µM | 32.3 µM | 0.444 µM | 10.7 µM | 51.7 µM |  | 78.1 µM | 20.1 µM | 7.57 µM | 8.01 µM |
| CCN(CC)CCN1C(=O)c2c(c3c4cccc(Cl)c4n(C4OC(CO)C(OC)C(O)C4O)c3c3[nH]c4c(Cl)cccc4c23)C1=O (stereo not given) |  |  |  |  | < 0.0001 µM |  |  |  |  | 1.99 µM | 0.309 µM and 0.0366 µM |  | 0.00103 µM and < 0.01 µM |  |  |  |  | < 0.0001 µM |  |  |
| N=C1C(c2nc3ccccc3c(=O)[nH]2)=C(O)CN1c1cccc(Cl)c1 | 13.3 µM | > 100 µM | > 23 µM | > 100 µM | 0.845 µM | > 100 µM | > 100 µM | 8.29 µM | 3.11 µM | 12.3 µM | 2.34 µM | > 100 µM | > 100 µM | > 100 µM | > 100 µM | > 100 µM | > 29.3 µM | 4.05 µM | 2.79 µM | 19.2 µM |
| COc1cc(C(=O)/C=C/c2cccnc2Nc2ccc(Cl)cc2)cc(OC)c1OC | 1.32 µM | 2.7 µM | 1.51 µM | 2.98 µM | 1.43 µM | 3.25 µM | 2.78 µM | 1.61 µM | 1.75 µM | 59.2 µM | 1.59 µM | 5.14 µM | 2.01 µM | 4.11 µM | 2.86 µM | 3.16 µM | 4.04 µM | 1.46 µM | 3.08 µM | 1.46 µM |
| CCN(CC)Cc1cc(Nc2ccnc3ccc(OC)cc23)ccc1O | 1.84 µM | 5.96 µM | 2.54 µM | 11.6 µM | 1.81 µM | 4.45 µM | 18.8 µM | 5.16 µM | 1.48 µM | 30.6 µM | 1.94 µM | 8.83 µM | 2.94 µM | 5.5 µM | 20.6 µM | 38.8 µM | 4.1 µM | 4.67 µM | 9.35 µM | 3.57 µM |
| Oc1ccc(/C=N/NC(=S)Nc2ccccc2)nc1 | 0.661 µM | 16.8 µM | 0.579 µM | > 100 µM | 5.83 µM | > 100 µM | 12.4 µM |  | 0.667 µM | > 100 µM | 1.55 µM | 6.77 µM | 1.54 µM | 44.1 µM | > 100 µM |  | > 100 µM | 1.84 µM | 9.84 µM | 1.07 µM |
| N#Cc1c(-c2ccccc2)nc(SCC(O)CN2CCOCC2)nc1N1CCOCC1 (stereo not given) | 1.54 µM | > 100 µM | 16.3 µM | > 100 µM | 15.9 µM | > 100 µM | > 100 µM | 7.52 µM | 1.67 µM | 63.2 µM | 4.05 µM | 15.3 µM |  |  | > 100 µM | > 100 µM |  | 14.8 µM | 6.22 µM | 18.9 µM |
| CCOC(=O)C(Cc1ccccc1)n1c(O)c(/C=N/c2ncc(Cc3ccc(Cl)cc3Cl)s2)sc1=S (stereo not given) | 1.97 µM | 5.31 µM | 3.22 µM | > 100 µM | 2.24 µM | 7.7 µM | > 100 µM | 2.07 µM | 1.71 µM | 41.1 µM | 2.29 µM | 7.06 µM | 1.31 µM | 5.68 µM | > 100 µM | > 100 µM | > 100 µM | 3.15 µM | 3.62 µM | 1.59 µM |
| CCCCNC(=O)CC1=C(C)/C(=C/c2[nH]c(-c3ccc[nH]3)cc2OC)N=C1C | 1.9 µM | 4 µM | 2.12 µM | 19.2 µM | 2.18 µM | 11.1 µM | 4.64 µM | 2.29 µM | 2.56 µM | 9.11 µM | 2.84 µM | 6.87 µM | 1.72 µM | 3.87 µM |  | 15.5 µM | 9.3 µM | 2.04 µM | 2.66 µM |  |
| CN1C(=O)[C@@H](CC2CCCC2)N(C2CCCC2)c2nc(Nc3cc(Cl)c(O)c(Cl)c3)ncc21 |  |  | 25.8 µM | > 100 µM | 26.7 µM | 88.3 µM | 47.2 µM | 22.4 µM | 23.1 µM | > 100 µM | 10.3 µM | 58.1 µM |  |  | > 100 µM | > 100 µM | > 100 µM | 15.2 µM | 21.6 µM | 21.4 µM |
| CC(=O)NC(CCc1ccc(Cl)c(Cl)c1)c1cccc(O)c(=O)c1 (stereo not given) | 0.109 µM | 2.2 µM | 0.302 µM | 40.4 µM | 0.784 µM | 22 µM | 12 µM |  | 0.195 µM | 32.5 µM | 0.833 µM | 5.3 µM | 2.8 µM | 17.1 µM | 13.1 µM |  | 11.9 µM | 0.591 µM | 2.61 µM | 0.485 µM |
| Cc1cc2c3c(nc4ccccc42)C(=O)c2cccnc2-c3n1 |  |  | 1.28 µM | 4.27 µM | 0.663 µM | 2.03 µM | 0.823 µM | 0.707 µM | 0.404 µM | > 21.9 µM | 0.135 µM | 1.36 µM | 1.48 µM | 3.82 µM | 1.82 µM | 2.49 µM | 2.67 µM | 0.148 µM | 1.69 µM | 0.146 µM |
| O=C(O)C1CC[N-]CC1.O=C(O)C1CC[N-]CC1.[NH2-].[NH2-].[Pt+4] |  |  | > 100 µM | > 100 µM | > 100 µM | > 100 µM | > 100 µM | > 100 µM | > 100 µM | > 100 µM | > 100 µM | > 100 µM | > 100 µM | > 100 µM | > 100 µM | > 100 µM | > 100 µM | > 100 µM | > 100 µM | > 100 µM |
| O=C(CCl)N1CCN(c2ccccc2)CC1 |  | 32 µM |  | 32.9 µM |  | 41.4 µM | 29.3 µM |  |  | 76.7 µM |  | 41.2 µM |  |  |  | 44.2 µM | 29.9 µM |  |  |  |
| N#Cc1ncc(-c2ccc(C(F)(F)F)cc2)c(NC2CCCCCC2)n1 | 12 µM | > 100 µM | 20.1 µM | > 100 µM | 9.35 µM | > 100 µM | > 100 µM |  | 18.3 µM | > 100 µM | 10.4 µM | > 100 µM |  |  | > 100 µM |  | > 100 µM | 47.7 µM | 22.4 µM | 34.8 µM |
| O=C(CC(O)(C(F)(F)F)C(F)(F)F)c1cccs1 |  |  |  | > 10 µM |  | > 10 µM | > 10 µM |  |  | > 10 µM |  | > 10 µM |  |  | > 10 µM |  | > 10 µM |  |  |  |
